{"source": "patent US5583018A", "about": "“Rapamycin derivative process for its preparation and its use” (SmithKline Beecham p.l.c., priority 1993, dated 1996)", "key": {"[1]": {"system": "Saccharomyces cerevisiae", "test": "Assay for antifungal activity (agar well zone of inhibition)", "assay_type": "cell-based", "experimental": "Yeast organism (Saccharomyces cerevisiae) in logarithmic growth were plated on complete agar medium (YPD). Compounds dissolved in an appropriate aqueous or organic solvent were placed in wells punched in the agar. Plates were incubated for 48 hours and zones of inhibition were measured. The potency of compounds were quantified by regression analysis of plots of inhibition zone versus the log of drug concentration."}, "[2]": {"system": "Spleen cells", "test": "Mitogenesis assay for immunosuppressive activity (Concanavalin A stimulated spleen cells, 3H-thymidine)", "assay_type": "cell-based, BDF1 female mice", "experimental": "Spleen cells for BDF1 female mice were established in RPMI with 10% fetal calf serum at 5×10^6 /mL. One hundred […] of this suspension (5×10^5 cells) were dispensed into 96-well round-bottomed microtiter plates (Linbro, Flow Laboratories). Concanavalin A (5 μg/ml) was added as the mitogenic stimulus, and the final volume in the microliter wells was adjusted to 200 μL with RPMI. Cell cultures were incubated for 72 hours at 37° C. in a 5% CO2 atmosphere and pulsed with 0,5 μCi ^3 H-thymidine (specific activity […]) for the last 18 hours of the 72 hours culture. The cells were harvested on an automated multiple sample harvester and cell-associated radioactivity counted in a Beckman liquid scintillation counter. The results were expressed as the mean values derived from quadruplicate measurements. Cell viability was determined by trypan blue exclusion after 72 hours of incubation. Compounds to be tested were added to the microtiler plates at the appropriate dilutions prior to the addition of cells."}}}
{"substance": "13,14-Bis(dihydro)rapamycin", "values": [{"measurement": "antifungal activity (in words)", "setting": "[1]", "result": "shows antifungal activity"}, {"measurement": "Antifungal Activity, IC12", "setting": "[1]; Saccharomyces cerevisiae on YPD agar, 48 hours, zones of inhibition", "result": "190 to 840", "unit": "ng/mL"}, {"measurement": "immunomodulatory activity (in words)", "setting": "[2]", "result": "shows immunomodulatory activity"}, {"measurement": "IC50", "setting": "[2]; spleen cells of BDF1 mice, Concanavalin A 5 μg/ml, 72 hours", "result": "70 to 200", "unit": "nM"}]}
